Key:
[1] = target: serotonin transporter (SERT) (Homo sapiens, UniProt P31645); test: Serotonin reuptake inhibition, [3H]-5-HT, cells transfected with 5-HT transporter cDNA; settings: for Triple reuptake inhibition (Ratio %) SERT: compound 1 μM, relative to control without compound (100%), lower value = stronger inhibition
Method: (§1) After removing the medium, each compound of Examples or Comparative Examples diluted to 1 μM in uptake buffer was added to a concentration of 200 μL/well and cultured at 37° C. for 15 minutes. 100 μL of uptake buffer containing 20-30 nM [3H]-DA was added and cultured at 37° C. for 5 minutes. The reaction solution was quickly removed and washed three times with 1 mL ice-cold uptake buffer. After dissolving the resultant in 1% SDS (0.5 mL), the degree of binding of radioisotope-labeled dopamine to the transporter was measured.
(§2) For norepinephrine(NE) and serotonin(5-HT), the degree of binding of radioisotope-labeled norepinephrine or serotonin to the transporter was measured in the same manner as above, except that cells transfected with NE or 5-HT transporter cDNA were used and [3H]-NE or [3H]-5-HT was used as a substrate.
(§3) In addition, when evaluating the reuptake inhibitory effect on dopamine, norepinephrine, and serotonin, the same method was performed without treating each compound of Examples or Comparative Examples as a control, the degree of binding of radioisotope-labeled dopamine, norepinephrine, and serotonin to the transporter was measured, and by using this as a reference (100%), the triple reuptake inhibitory effect was evaluated as a relative ratio (Ratio %). That is, in the control group, the binding of dopamine, norepinephrine, and serotonin to transporters is not inhibited, but when each compound of Examples is treated and thus the binding is inhibited, the Ratio % value decreases.

[2] = target: norepinephrine transporter (NET) (Homo sapiens, UniProt P23975); test: Norepinephrine reuptake inhibition, [3H]-NE, cells transfected with NE transporter cDNA; settings: for Triple reuptake inhibition (Ratio %) NET: compound 1 μM, relative to control without compound (100%), lower value = stronger inhibition
Method: as §1, §2, §3

[3] = target: dopamine transporter (DAT) (Homo sapiens, UniProt Q01959); test: Dopamine reuptake inhibition, [3H]-DA, HEK-293 cells transfected with dopamine transporter cDNA; settings: for Triple reuptake inhibition (Ratio %) DAT: compound 1 μM, relative to control without compound (100%), lower value = stronger inhibition
Sequence of dopamine transporter (DAT) (Q01959 whole entry, species assumed): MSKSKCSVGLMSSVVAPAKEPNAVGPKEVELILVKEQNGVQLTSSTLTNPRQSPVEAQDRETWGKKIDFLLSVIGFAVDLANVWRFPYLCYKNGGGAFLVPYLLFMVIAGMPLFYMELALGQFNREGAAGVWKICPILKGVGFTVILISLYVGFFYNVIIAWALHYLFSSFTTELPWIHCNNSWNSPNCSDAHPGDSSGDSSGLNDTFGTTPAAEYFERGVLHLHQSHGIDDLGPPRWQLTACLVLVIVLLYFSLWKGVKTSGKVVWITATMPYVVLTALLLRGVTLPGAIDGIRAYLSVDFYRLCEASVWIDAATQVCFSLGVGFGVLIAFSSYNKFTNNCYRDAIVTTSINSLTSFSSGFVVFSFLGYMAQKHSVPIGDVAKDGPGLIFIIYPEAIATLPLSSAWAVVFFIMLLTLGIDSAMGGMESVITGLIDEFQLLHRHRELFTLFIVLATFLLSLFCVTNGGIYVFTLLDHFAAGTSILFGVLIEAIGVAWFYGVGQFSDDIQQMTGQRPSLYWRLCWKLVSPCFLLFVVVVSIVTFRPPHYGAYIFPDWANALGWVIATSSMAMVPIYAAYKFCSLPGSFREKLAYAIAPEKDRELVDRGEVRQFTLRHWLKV

Sequence of serotonin transporter (SERT) (P31645 whole entry, species assumed): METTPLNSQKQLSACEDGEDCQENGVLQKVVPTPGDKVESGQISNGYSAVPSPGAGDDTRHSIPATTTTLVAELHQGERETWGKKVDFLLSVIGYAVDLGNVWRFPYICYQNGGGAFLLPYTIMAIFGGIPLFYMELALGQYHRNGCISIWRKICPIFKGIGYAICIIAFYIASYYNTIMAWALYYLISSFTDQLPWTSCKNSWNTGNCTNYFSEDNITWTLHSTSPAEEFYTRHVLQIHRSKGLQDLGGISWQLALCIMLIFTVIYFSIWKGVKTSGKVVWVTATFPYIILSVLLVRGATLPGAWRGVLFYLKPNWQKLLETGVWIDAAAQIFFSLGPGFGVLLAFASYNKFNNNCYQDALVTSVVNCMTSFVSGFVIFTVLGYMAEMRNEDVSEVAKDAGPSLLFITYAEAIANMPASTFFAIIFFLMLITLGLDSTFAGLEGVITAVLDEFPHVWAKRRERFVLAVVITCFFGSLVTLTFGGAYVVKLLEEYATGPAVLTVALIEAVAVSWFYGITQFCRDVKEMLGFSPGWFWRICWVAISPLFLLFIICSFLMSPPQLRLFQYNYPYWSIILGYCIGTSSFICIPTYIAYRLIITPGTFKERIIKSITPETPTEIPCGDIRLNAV
Sequence of norepinephrine transporter (NET) (P23975 whole entry, species assumed): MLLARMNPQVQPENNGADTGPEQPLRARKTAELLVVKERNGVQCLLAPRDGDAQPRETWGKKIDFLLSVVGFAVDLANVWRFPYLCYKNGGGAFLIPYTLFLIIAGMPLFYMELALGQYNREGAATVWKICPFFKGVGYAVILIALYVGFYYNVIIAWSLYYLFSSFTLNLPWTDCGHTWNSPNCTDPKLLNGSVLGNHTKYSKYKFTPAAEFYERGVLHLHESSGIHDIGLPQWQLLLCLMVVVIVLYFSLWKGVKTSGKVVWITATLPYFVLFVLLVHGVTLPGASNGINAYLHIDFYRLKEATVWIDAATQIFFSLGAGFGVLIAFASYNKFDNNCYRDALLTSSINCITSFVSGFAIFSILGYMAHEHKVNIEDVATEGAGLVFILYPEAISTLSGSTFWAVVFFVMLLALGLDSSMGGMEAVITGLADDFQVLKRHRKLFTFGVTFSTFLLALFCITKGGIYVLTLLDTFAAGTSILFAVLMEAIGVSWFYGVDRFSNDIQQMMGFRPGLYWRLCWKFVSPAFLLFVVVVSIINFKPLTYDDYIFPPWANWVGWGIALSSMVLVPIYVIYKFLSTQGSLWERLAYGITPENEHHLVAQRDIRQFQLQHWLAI

| SMILES | IC50 [1] | Triple reuptake inhibition (Ratio %) SERT [1] | IC50 [2] | Triple reuptake inhibition (Ratio %) NET [2] | IC50 [3] | Triple reuptake inhibition (Ratio %) DAT [3] |
| --- | --- | --- | --- | --- | --- | --- |
| c1ccc(CC2CCN(Cc3nnc(-c4cc5ccccc5[nH]4)[nH]3)CC2)cc1 [Example 1, 2-(5-((4-benzylpiperidin-1-yl)methyl)-4H-1,2,4-triazol-3-yl)-1H-indole] | 3730 nM | 91.56% | 343 nM | 26.06% | 170 nM | 14.90% |
| FC(F)(F)Oc1ccc(-c2nnc(CN3CCC(Cc4ccc(Cl)c(Cl)c4)CC3)[nH]2)cc1 [Example 61, 4-(3,4-dichlorobenzyl)-1-((5-(4-(trifluoromethoxy)phenyl)-4H-1,2,4-triazol-3-yl)methyl)piperidine] | – | 82.77% | – | 48.25% | – | 59.39% |
| COC(=O)c1cccc2c(-c3nnc(CN4CCC(Cc5ccc(Cl)c(Cl)c5)CC4)[nH]3)c[nH]c12 [Example 60, methyl 3-(5-((4-(3,4-dichlorobenzyl)piperidin-1-yl)methyl)-4H-1,2,4-triazol-3-yl)-1H-indol-7-carboxylate] | 1870 nM | 61.70% | – | 95.63% | – | 94.44% |
| Fc1ccc2[nH]c(-c3nnc(CN4CCC(Cc5ccccc5)CC4)[nH]3)cc2c1 [Example 2, 2-(5-((4-benzylpiperidin-1-yl)methyl)-4H-1,2,4-triazol-3-yl)-5-fluoro-1H-indole] | 5200 nM | 67.47% | 14 nM | 2.58% | 83 nM | 3.94% |
| COC(=O)c1cccc2c(-c3nnc(CN4CCC(Cc5ccccc5)CC4)[nH]3)c[nH]c12 [Example 42, methyl 3-(5-((4-benzylpiperidin-1-yl)methyl)-4H-1,2,4-triazol-3-yl)-1H-indol-7-carboxylate] | 417 nM | 42.17% | 969 nM | 96.81% | 453 nM | 42.13% |
| FC(F)(F)c1ccc(-c2nnc(CN3CCC(Cc4ccccc4)CC3)[nH]2)cc1 [Example 50, 4-benzyl-1-((5-(4-(trifluoromethyl)phenyl)-4H-1,2,4-triazol-3-yl)methyl)piperidine] | 5700 nM | 66.02% | 176 nM | 27.46% | 236 nM | 20.84% |
| Cc1ccc2[nH]cc(-c3nnc(CN4CCC(Cc5ccccc5)CC4)[nH]3)c2c1 [Example 39, 3-(5-((4-benzylpiperidin-1-yl)methyl)-4H-1,2,4-triazol-3-yl)-5-methyl-1H-indole] | – | 58.07% | – | 99.14% | – | 79.20% |
| COc1ccc2[nH]cc(-c3nnc(CN4CCC(Cc5ccc(Cl)c(Cl)c5)CC4)[nH]3)c2c1 [Example 44, 3-(5-((4-(3,4-dichlorobenzyl)piperidin-1-yl)methyl)-4H-1,2,4-triazol-3-yl)-5-methoxy-1H-indole] | – | 28.87% | – | 92.59% | – | 80.58% |
| Fc1ccc2[nH]c(-c3nnc(CN4CCN(Cc5ccccc5)CC4)[nH]3)cc2c1 [Example 64, 2-(5-((4-benzylpiperazin-1-yl)methyl)-4H-1,2,4-triazol-3-yl)-5-fluoro-1H-indole] | – | 91.98% | – | 64.96% | – | 32.65% |
| COc1cc2cc(-c3nnc(CN4CCC(Cc5ccc(Cl)c(Cl)c5)CC4)[nH]3)[nH]c2cc1OC [Example 31, 2-(5-((4-(3,4-dichlorobenzyl)piperidin-1-yl)methyl)-4H-1,2,4-triazol-3-yl)-5,6-dimethoxy-1H-indole] | 276 nM | 32.68% | 459 nM | 32.54% | 204 nM | 19.20% |
| FC(F)(F)c1cccc(-c2nnc(CN3CCC(Cc4ccccc4)CC3)[nH]2)c1 [Example 55, 4-benzyl-1-((5-(3-(trifluoromethyl)phenyl)-4H-1,2,4-triazol-3-yl)methyl)piperidine] | – | 86.78% | – | 66.71% | – | 40.14% |
| c1ccc(CC2CCN(Cc3nnc(-c4c[nH]c5ccccc45)[nH]3)CC2)cc1 [Example 22, 3-(5-((4-benzylpiperidin-1-yl)methyl)-4H-1,2,4-triazol-3-yl)-1H-indole] | 945 nM | 47.99% | 644 nM | 32.07% | 187 nM | 19.30% |
| CN(C)CCNC(=O)c1ccc(-c2nnc(CN3CCC(Cc4ccccc4)CC3)[nH]2)cc1 [Example 58, 4-(5-((4-benzylpiperidin-1-yl)methyl)-4H-1,2,4-triazol-3-yl)-N-(2-(dimethylamino)ethyl)benzoamide] | – | 50.24% | – | 76.51% | – | 77.67% |
| Cc1ccc2[nH]c(-c3nnc(CN4CCC(Cc5ccccc5)CC4)[nH]3)cc2c1 [Example 15, 2-(5-((4-benzylpiperidin-1-yl)methyl)-4H-1,2,4-triazol-3-yl)-5-methyl-1H-indole] | 25000 nM | 83.60% | 1110 nM | 49.82% | 173 nM | 21.04% |
| Oc1cc2cc(-c3nnc(CN4CCC(Cc5ccccc5)CC4)[nH]3)[nH]c2cc1O [Example 35, 2-(5-((4-benzylpiperidin-1-yl)methyl)-4H-1,2,4-triazol-3-yl)-1H-indol-5,6-diol] | 300 nM | 27.99% | 427 nM | 56.53% | 629 nM | 35.65% |
| COc1cccc2c(-c3nnc(CN4CCC(Cc5ccccc5)CC4)[nH]3)c[nH]c12 [Example 37, 3-(5-((4-benzylpiperidin-1-yl)methyl)-4H-1,2,4-triazol-3-yl)-7-methoxy-1H-indole] | 322 nM | 27.71% | 1570 nM | 79.91% | 349 nM | 40.29% |
| Cc1ccc2c(-c3nnc(CN4CCC(Cc5ccccc5)CC4)[nH]3)c[nH]c2c1 [Example 38, 3-(5-((4-benzylpiperidin-1-yl)methyl)-4H-1,2,4-triazol-3-yl)-6-methyl-1H-indole] | 518 nM | 51.55% | 361 nM | 64.82% | 670 nM | 31.70% |
| O=C(O)c1ccc2[nH]c(-c3nnc(CN4CCC(Cc5ccccc5)CC4)[nH]3)cc2c1 [Example 28, 2-(5-((4-benzylpiperidin-1-yl)methyl)-4H-1,2,4-triazol-3-yl)-1H-indol-5-carboxylic acid] | – | 93.63% | – | 85.85% | – | 65.47% |
| Clc1cccc(CC2CCN(Cc3nnc(-c4cc5ccccc5[nH]4)[nH]3)CC2)c1 [Example 8, 2-(5-((4-(3-chlorobenzyl)piperidin-1-yl)methyl)-4H-1,2,4-triazol-3-yl)-1H-indole] | – | 88.65% | – | 66.48% | – | 32.29% |
| CCCCOc1ccc2cc(-c3nnc(CN4CCC(Cc5ccccc5)CC4)[nH]3)[nH]c2c1 [Example 69, 2-(5-((4-benzylpiperidin-1-yl)methyl)-4H-1,2,4-triazol-3-yl)-6-butoxy-1H-indole] | – | – | – | 90.43% | – | 50.33% |
| CC(=O)Nc1ccc2[nH]c(-c3nnc(CN4CCC(Cc5ccccc5)CC4)[nH]3)cc2c1 [Example 66, N-(2-(5-((4-benzylpiperidin-1-yl)methyl)-4H-1,2,4-triazol-3-yl)-1H-indol-5-yl)acetamide] | – | – | – | 58.77% | – | 51.59% |
